For assay [1], the target named is Cyclin-dependent kinase 5/CDK5 activator 1 (Homo sapiens) (UniProt Q00535+Q15078). Nature of the assay: Inhibition of CDK5/P25 (unknown origin) at 10 uM relative to control. Format: protein-complex assay.
For assay [2], the target named is Glycogen synthase kinase-3 beta (Homo sapiens) (UniProt P49841). Nature of the assay: Inhibition of GSK3beta (unknown origin) at 10 uM relative to control.
Assay [3] addresses Calcium/calmodulin-dependent protein kinase type II subunit alpha (Homo sapiens) (UniProt Q9UQM7). Nature of the assay: Inhibition of CAMK2alpha (unknown origin) at 10 uM relative to control.
Assay [4] addresses Protein kinase C beta type (Homo sapiens) (UniProt P05771). Description: Inhibition of PRKCbeta1 (unknown origin) at 10 uM relative to control.
Assay [5] deals with Mitogen-activated protein kinase 10 (Homo sapiens) (UniProt P53779). Description: Inhibition of MAPK10 (unknown origin) at 10 uM relative to control.
In assay [6] the target is Leucine-rich repeat serine/threonine-protein kinase 2 (Homo sapiens, UniProt Q5S007). Nature of the assay: Inhibition of LRRK2 (unknown origin) at 10 uM relative to control.
In assay [7] the target is Tyrosine-protein kinase Lck (Homo sapiens) (UniProt P06239). Description: Inhibition of LCK (unknown origin) at 10 uM relative to control.
In assay [8] the target is Receptor-type tyrosine-protein kinase FLT3 (Homo sapiens) (UniProt P36888). Description: Inhibition of FLT3 (unknown origin) at 10 uM relative to control.
For assay [9], the target named is Serine/threonine-protein kinase MARK2 (Homo sapiens) (UniProt Q7KZI7). Description: Inhibition of MARK2 (unknown origin) at 10 uM relative to control.
Assay [10] addresses Insulin receptor (Homo sapiens) (UniProt P06213). Description: Inhibition of INSR (unknown origin) at 10 uM relative to control.
Assay [11] addresses Protein-tyrosine kinase 2-beta (Homo sapiens) (UniProt Q14289). Description: Inhibition of FAK2 (unknown origin) at 10 uM relative to control.
For assay [12], the target named is Receptor-interacting serine/threonine-protein kinase 2 (Homo sapiens) (UniProt O43353). Nature of the assay: Inhibition of RIPK2 (unknown origin) at 10 uM relative to control.
Assay [13] addresses Tyrosine-protein kinase ABL1 (Homo sapiens) (UniProt P00519). Nature of the assay: Inhibition of ABL1 (unknown origin) at 10 uM relative to control.
Assay [14] addresses Serine/threonine-protein kinase PLK1 (Homo sapiens) (UniProt P53350). Description: Inhibition of PLK1 (unknown origin) at 10 uM relative to control.
The target in assay [15] is Serine/threonine-protein kinase 16 (Homo sapiens) (UniProt O75716). Nature of the assay: Inhibition of STK16 (unknown origin) at 10 uM relative to control.
Assay [16] deals with T1, Dual specificity protein kinase TTK (Homo sapiens) (UniProt P33981).
T1 sequence (whole entry): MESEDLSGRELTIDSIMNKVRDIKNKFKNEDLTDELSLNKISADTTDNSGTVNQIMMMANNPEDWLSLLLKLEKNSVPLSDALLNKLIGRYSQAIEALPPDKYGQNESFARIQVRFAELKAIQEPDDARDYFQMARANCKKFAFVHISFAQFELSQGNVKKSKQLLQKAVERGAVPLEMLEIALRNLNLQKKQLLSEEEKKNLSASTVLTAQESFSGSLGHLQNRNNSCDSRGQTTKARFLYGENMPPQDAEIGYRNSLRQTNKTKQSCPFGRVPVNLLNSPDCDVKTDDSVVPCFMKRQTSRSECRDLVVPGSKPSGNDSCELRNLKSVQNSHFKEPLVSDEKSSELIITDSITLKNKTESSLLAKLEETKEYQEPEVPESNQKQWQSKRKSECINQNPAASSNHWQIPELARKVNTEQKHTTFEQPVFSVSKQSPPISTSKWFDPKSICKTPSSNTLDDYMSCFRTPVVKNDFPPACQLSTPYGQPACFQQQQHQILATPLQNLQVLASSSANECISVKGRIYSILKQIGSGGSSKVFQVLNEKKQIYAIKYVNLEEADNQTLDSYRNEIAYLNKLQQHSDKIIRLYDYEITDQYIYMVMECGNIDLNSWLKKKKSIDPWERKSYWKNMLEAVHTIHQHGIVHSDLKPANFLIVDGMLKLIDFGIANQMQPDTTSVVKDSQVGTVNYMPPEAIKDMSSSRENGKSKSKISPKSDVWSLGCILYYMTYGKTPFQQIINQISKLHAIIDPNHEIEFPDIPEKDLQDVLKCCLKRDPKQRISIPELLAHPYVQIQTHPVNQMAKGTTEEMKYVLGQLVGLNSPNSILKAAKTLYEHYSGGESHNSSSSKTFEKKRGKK
Description: Inhibition of TTK (unknown origin) at 10 uM relative to control.

For assay [17], the target named is Receptor tyrosine-protein kinase erbB-4 (Homo sapiens) (UniProt Q15303). Nature of the assay: Inhibition of ERBB4 (unknown origin) at 10 uM relative to control.
The target of assay [18] is Rho-associated protein kinase 2 (Homo sapiens) (UniProt O75116). Nature of the assay: Inhibition of ROCK2 (unknown origin) at 10 uM relative to control.
Rho-associated protein kinase 2 (Homo sapiens), sequence (O75116 whole entry, looked up): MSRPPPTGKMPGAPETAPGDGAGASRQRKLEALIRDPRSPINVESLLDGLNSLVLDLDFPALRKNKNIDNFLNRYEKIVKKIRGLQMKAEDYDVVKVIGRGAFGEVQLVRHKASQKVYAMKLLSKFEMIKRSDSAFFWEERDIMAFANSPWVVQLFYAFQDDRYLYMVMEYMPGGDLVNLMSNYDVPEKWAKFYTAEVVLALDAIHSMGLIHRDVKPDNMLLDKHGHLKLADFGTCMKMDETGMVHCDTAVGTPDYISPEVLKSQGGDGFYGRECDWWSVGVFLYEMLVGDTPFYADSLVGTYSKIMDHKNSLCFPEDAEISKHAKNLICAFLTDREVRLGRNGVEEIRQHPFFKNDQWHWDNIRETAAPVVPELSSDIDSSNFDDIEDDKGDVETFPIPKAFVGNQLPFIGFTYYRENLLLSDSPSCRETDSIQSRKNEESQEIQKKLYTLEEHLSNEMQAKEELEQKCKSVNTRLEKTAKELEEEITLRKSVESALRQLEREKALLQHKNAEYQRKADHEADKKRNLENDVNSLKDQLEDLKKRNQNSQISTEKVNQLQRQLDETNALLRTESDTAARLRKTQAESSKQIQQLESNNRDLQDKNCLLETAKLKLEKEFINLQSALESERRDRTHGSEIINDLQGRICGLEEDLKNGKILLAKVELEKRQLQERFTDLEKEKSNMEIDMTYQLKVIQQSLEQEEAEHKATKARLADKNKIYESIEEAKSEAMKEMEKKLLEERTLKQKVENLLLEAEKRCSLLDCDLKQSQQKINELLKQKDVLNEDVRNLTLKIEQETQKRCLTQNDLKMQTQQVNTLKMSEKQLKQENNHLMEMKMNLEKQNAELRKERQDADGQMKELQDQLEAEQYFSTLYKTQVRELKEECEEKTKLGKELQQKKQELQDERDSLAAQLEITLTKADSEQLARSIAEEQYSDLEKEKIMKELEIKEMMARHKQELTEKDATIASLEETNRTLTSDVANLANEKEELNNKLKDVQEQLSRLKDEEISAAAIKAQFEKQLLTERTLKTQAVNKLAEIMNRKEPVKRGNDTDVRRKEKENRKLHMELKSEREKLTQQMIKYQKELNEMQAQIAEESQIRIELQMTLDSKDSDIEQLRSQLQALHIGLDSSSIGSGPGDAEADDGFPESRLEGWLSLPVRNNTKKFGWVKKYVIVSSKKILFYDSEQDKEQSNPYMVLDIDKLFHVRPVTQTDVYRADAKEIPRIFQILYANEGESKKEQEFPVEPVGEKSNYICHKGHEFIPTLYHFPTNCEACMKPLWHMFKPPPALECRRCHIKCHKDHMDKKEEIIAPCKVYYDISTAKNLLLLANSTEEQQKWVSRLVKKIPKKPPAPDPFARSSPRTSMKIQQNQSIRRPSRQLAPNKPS
For assay [19], the target named is RAF proto-oncogene serine/threonine-protein kinase (Homo sapiens) (UniProt P04049). Description: Inhibition of RAF1 (unknown origin) at 10 uM relative to control.
RAF proto-oncogene serine/threonine-protein kinase (Homo sapiens), sequence (P04049 whole entry): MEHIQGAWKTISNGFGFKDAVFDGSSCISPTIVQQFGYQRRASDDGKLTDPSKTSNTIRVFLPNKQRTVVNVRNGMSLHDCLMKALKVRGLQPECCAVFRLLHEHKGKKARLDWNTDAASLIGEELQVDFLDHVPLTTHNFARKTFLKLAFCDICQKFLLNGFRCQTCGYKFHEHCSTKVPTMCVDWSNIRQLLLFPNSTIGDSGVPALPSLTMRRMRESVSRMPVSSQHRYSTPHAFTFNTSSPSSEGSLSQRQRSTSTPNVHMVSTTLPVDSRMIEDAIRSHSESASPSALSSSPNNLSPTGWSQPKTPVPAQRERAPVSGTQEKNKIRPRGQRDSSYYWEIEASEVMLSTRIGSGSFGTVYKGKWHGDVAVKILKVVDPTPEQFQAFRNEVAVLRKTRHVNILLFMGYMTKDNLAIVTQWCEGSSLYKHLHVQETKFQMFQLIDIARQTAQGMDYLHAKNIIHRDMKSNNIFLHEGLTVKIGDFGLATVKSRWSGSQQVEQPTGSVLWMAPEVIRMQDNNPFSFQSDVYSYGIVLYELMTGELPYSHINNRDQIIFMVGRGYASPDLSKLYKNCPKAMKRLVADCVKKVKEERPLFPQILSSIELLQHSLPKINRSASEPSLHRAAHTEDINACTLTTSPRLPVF
The target in assay [20] is T2, Mitogen-activated protein kinase kinase kinase 7 (Homo sapiens) (UniProt O43318).
T2 sequence (whole entry): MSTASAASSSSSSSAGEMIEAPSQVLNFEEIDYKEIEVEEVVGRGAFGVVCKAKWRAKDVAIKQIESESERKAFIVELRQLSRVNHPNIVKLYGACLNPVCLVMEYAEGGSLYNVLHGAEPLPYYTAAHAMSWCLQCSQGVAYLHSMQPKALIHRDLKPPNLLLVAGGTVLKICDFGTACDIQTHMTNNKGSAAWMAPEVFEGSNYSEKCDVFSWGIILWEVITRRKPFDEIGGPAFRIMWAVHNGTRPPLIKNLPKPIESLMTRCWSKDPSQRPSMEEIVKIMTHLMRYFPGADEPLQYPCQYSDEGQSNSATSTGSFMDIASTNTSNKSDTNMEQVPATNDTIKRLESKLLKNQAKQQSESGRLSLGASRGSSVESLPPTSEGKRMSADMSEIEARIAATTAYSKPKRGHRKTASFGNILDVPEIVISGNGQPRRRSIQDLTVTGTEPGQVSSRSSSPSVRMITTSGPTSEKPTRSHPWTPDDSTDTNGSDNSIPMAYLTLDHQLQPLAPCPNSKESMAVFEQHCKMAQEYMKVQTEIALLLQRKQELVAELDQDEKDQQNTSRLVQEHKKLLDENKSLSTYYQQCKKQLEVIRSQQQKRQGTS
Nature of the assay: Inhibition of MAP3K7 (unknown origin) at 10 uM relative to control.

Assay [21] deals with Macrophage colony-stimulating factor 1 receptor (Homo sapiens, UniProt P07333). Description: Inhibition of CSF1R (unknown origin) at 10 uM relative to control.
Assay [22] addresses Dual specificity tyrosine-phosphorylation-regulated kinase 1B (Homo sapiens) (UniProt Q9Y463). Description: Inhibition of DYRK1B (unknown origin) at 10 uM relative to control.

For orientation: inhibition means the drop in the measured response relative to a control, in per cent.

Structures are written as SMILES.

Dual specificity tyrosine-phosphorylation-regulated kinase 1B (Homo sapiens), sequence (Q9Y463 whole entry, looked up): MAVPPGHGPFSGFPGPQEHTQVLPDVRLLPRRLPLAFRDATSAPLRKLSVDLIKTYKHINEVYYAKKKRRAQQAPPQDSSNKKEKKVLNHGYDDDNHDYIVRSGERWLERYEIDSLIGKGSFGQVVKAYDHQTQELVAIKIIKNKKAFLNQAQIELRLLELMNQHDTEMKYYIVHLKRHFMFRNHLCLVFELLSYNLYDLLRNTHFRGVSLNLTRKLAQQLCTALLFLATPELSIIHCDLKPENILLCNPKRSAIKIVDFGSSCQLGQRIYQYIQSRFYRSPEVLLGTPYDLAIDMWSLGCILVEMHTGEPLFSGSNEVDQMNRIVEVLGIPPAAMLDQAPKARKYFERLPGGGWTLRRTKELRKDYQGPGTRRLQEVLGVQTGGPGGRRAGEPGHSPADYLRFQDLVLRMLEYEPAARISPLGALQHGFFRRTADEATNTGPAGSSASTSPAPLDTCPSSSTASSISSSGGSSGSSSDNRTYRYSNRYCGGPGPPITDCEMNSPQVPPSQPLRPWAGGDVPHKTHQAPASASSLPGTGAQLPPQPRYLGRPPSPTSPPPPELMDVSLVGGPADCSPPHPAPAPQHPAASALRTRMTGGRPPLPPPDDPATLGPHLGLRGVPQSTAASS
Insulin receptor (Homo sapiens), sequence (P06213 28-758 limits assumed): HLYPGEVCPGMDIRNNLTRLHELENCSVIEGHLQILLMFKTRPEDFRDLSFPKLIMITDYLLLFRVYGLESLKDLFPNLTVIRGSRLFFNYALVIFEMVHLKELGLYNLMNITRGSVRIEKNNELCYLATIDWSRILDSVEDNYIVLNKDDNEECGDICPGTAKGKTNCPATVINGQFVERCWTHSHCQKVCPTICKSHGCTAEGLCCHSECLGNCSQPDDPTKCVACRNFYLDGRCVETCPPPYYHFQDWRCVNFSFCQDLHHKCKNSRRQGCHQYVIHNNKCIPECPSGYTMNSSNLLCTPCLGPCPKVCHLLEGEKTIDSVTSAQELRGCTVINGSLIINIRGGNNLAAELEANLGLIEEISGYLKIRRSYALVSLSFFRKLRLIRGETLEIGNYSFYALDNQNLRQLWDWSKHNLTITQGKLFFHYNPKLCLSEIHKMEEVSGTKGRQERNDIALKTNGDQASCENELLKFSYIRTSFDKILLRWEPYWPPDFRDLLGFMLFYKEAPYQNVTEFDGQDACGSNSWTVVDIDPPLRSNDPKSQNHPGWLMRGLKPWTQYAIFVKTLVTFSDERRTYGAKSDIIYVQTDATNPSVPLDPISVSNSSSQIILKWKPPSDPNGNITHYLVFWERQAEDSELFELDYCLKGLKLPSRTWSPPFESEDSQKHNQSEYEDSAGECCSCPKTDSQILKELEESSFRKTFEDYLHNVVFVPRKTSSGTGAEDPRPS
Insulin receptor (Homo sapiens), sequence (P06213 763-1382 limits assumed): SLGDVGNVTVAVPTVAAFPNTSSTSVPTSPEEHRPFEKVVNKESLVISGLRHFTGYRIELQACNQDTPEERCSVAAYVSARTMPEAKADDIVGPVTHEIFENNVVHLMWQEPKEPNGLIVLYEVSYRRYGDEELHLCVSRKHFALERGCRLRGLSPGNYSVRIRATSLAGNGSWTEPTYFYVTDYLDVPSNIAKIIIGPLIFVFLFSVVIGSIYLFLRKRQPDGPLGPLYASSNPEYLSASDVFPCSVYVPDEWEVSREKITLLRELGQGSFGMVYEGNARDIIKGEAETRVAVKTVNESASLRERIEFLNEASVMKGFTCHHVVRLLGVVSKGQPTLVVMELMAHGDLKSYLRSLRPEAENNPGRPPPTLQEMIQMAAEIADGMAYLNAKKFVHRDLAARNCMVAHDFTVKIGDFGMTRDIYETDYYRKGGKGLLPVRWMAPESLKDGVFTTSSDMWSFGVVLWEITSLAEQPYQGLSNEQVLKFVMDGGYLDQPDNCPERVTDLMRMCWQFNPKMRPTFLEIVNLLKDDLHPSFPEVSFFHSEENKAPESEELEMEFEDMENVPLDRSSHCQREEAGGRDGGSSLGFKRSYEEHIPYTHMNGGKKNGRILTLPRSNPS
Serine/threonine-protein kinase PLK1 (Homo sapiens), sequence (P53350 whole entry): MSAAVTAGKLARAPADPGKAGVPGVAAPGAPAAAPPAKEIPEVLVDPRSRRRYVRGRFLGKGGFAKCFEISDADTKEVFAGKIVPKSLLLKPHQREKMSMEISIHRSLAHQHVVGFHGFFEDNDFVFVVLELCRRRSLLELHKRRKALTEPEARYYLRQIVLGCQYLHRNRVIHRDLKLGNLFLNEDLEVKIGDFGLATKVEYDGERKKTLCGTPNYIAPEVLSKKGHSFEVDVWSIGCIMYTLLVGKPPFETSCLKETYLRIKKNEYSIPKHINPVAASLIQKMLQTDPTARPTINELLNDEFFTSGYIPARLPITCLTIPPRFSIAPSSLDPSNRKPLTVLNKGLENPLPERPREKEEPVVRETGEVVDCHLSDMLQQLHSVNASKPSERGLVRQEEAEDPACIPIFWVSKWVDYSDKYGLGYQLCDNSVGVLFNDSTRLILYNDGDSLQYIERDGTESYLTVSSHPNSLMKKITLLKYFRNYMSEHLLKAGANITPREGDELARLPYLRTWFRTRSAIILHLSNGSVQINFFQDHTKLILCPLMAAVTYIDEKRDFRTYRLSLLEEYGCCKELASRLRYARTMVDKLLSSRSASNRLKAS
Glycogen synthase kinase-3 beta (Homo sapiens), sequence (P49841 whole entry, looked up): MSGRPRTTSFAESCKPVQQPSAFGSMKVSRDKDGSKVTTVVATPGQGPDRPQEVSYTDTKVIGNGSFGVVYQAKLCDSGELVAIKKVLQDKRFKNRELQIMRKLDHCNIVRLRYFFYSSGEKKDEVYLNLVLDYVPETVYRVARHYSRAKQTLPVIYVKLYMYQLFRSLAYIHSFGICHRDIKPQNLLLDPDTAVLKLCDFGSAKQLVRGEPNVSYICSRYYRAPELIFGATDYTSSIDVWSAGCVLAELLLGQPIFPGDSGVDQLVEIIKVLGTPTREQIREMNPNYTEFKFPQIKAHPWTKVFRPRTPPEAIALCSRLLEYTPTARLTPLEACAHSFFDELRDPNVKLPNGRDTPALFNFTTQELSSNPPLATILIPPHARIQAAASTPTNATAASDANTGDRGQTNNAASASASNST

On to `CC(C)Nc1c(C(N)=O)nnc2ccc(-c3cn[nH]c3)cc12`, for which the inhibition in [1] amounted to 97%; in assay [2], 95%; in assay [3], 92%; in [4] it was 40%; in assay [5], 93%; in assay [6], 96%. Further, the inhibition in assay [7] was found to be 94%; in [8], 101%; in assay [9], 87%; in assay [10] it was 39%; in assay [11], 70%; in assay [12] it was 98%. In addition, the inhibition came out at 97% in assay [13]; 45% in assay [14]; 84% in [15]; 97% in assay [16]; 38% in assay [17]; 99% in [18]. Besides, the inhibition amounted to 88% in [19], 97% in [20], 96% in assay [21] and 97% in [22].
For `CC(C)Nc1c(C(N)=O)cnc2cc(-c3ccc(S(C)(=O)=O)cc3)ccc12`, the inhibition in assay [1] is 2%; in assay [2] it was 6%; in assay [3] it was 0%; in assay [4], 8%; in assay [5] it was 4%; in [6] it was 96%. Further, the inhibition amounted to 31% in assay [7]; 75% in assay [8]; 94% in assay [9]; 4% in [10]; 47% in [11]; 52% in assay [12]. Further, the inhibition in assay [13] was determined as 50%; in assay [14], 1%; in [15], 39%; in assay [16], 50%; in assay [17], 11%; in [18], 86%. For the same compound, the inhibition in assay [19] came to 17%; in [20] it was 89%; in assay [21] it was 98%; in [22] it was 9%.
Take `CC(C)Nc1c(C(N)=O)nnc2ccc(-c3ccncc3)cc12`: the inhibition in assay [1] stood at 82%; in assay [2] it was 94%; in [3], 77%; in [4], 43%; in assay [5], 88%; in assay [6], 95%. For the same compound, the inhibition in assay [7] was 90%; in assay [8] it was 102%; in [9] it was 88%; in assay [10], 13%; in [11] it was 26%; in assay [12], 91%. The inhibition in assay [13] was determined as 97%; in [14], 25%; in [15], 84%; in assay [16], 93%; in [17] it was 21%; in assay [18] it was 88%. The inhibition in [19] came out at 93%; in assay [20], 84%; in assay [21], 90%; in assay [22] it was 97%.

The values above are taken from ChEMBL document CHEMBL2331489, “Novel cinnoline-based inhibitors of LRRK2 kinase activity” (Bioorg Med Chem Lett, 2013).
